Data: patent publication US20130338032A1, “ASSAY FOR DETERMINING EPIGENETIC PROFILES OF MARKERS OF FRAGILE X ALLELES” (Murdoch Childrens Research Institute, priority 2009, published 2013)

Columns and labels:
Type in all cases: cell-based, human
FMR4/ASFMR1 mRNA = FMR4/ASFMR1 mRNA (real-time PCR) in lymphoblast cell lines treated with 5-aza
Experimental: (§1) FIG. 1B through J is a graphical representation of the expression of the FMR1 and FRR4 mRNA and FREE1 methylation in lymphoblast cultures with selectively depleted DNMTI. Cell lines from (B, C, D) a HC cell line (30 CGGs), (E, F, G) a PM cell line (103 CGGs) and (H, I, J) a FM cell line from an FXS individual (490 CGGs) were cultured for 3 days in standard RPMI medium/10% v/v fetal bovine serum treated with different doses of 5-aza-deoxycytidine, in triplicate wells, with half of the cells from each well taken for DNA methylation analysis, and the other half for mRNA analyses. FREE1 methylation for each sample was examined from duplicate bisulfite reactions, with single PCR products made from each conversion. The 0.1 methylation output ratio cutoff was not used for this experiment due to an increased number of technical replicates, with values expressed as means of six technical replicates per condition. Methylation and mRNA levels were assessed in the same wells using MALDI-TOF MS and real-time PCR, respectively. The error bars represent standard error (n=3 to 6). All conditions were compared to 0 μM 5-aza control: ***-p<0.001; **-p<0.05.
(§2) Lymphoblast cell lines were established by Epstein-Barr virus (EBV) transformation from peripheral blood of individuals with: 30, 170 and 490 repeats. […] The cell-viability counts and cell composition were determined by trypan blue exclusion, using a hemocytometer. […]
Total RNA was extracted and purified using the Rneasy extraction kit, as per manufacturer's instructions (Qiagen Inc., Hilden, Germany). RNA concentrations were measured in triplicate using a NanoDrop ND-1000 Spectrophotometer, with purity being determined by the A260/A280 ratio using the expected values between 1.8 and 2. Total RNA quality and the degree of DNA contamination was also assessed using capillary electrophoresis Standard Sens Kit (Bio-rad), which involved descriptive comparison of chromatographic features based on previous publications using this system (Fleige and Pfaffl, Mol Aspects Med 27(2-3):126-139, 2006). […]

FREE1 = FREE1 methylation (MALDI-TOF MS) in lymphoblast cell lines treated with 5-aza
Experimental: as §1
Lymphoblast cell lines were established by Epstein-Barr virus (EBV) transformation from peripheral blood of individuals with: 30, 170 and 490 repeats. The cell lines were treated with 5 aza based on a previously described protocol (Pietrobono et al, 2002, supra). Briefly, A 10 mM stock solution of 5-aza (Sigma-Aldrich) was initially prepared in sterile water. The cell-viability counts and cell composition were determined by trypan blue exclusion, using a hemocytometer. Cells were then resuspended at a density of […] in RPMI medium (Sigma St Luis, Mo., USA)/10% v/v Fetal bovine serum (CSL) at 37° C., 5% v/v CO2, supplemented with of 5-aza stock and thoroughly resuspended. The cells were cultured in triplicate wells for each of the four final 5-Aza concentrations of: 0, 1, 10 and 100 μM. […]

FMR1 mRNA = FMR1 mRNA (real-time PCR) in lymphoblast cell lines treated with 5-aza; conditions: 5-aza 0, 1, 10, 100 μM, 3 days
Experimental: as §1, with “All conditions were compared to 0 μM 5-aza control: ***-p<0.001; **-p<0.05.” left out
as §2

[1] = GZ and PM cell lines, 5-aza 0, 1, 10, 100 μM, 3 days
[2] = cell lines for FM carriers affected with FXS, 5-aza 0, 1, 10, 100 μM, 3 days
[3] = cell lines from carriers of CGG alleles ranging from normal size to FM, 5-Aza treatment

Nc1ncn([C@H]2C[C@H](O)[C@@H](CO)O2)c(=O)n1 [5-aza, 5-aza-2′-deoxycytidine]
ASFMR1/FMR4 mRNA levels (FMR4/ASFMR1 mRNA; [1]): increase | mRNA levels of ASFMR1/FMR4 (FMR4/ASFMR1 mRNA; [2]): increase in mRNA levels | FMR4/ASFMR1 transcription within the FREE1 (FMR4/ASFMR1 mRNA; [3]): increase FMR4/ASFMR1 transcription | FREE1 methylation (FREE1; [1]): further demethylation of FREE1 | FREE1 methylation (FREE1; [2]): demethylation of FREE1 | FREE1 methylation (FREE1; [3]): de-methylation of the FREE1 | FMR1 mRNA levels (FMR1 mRNA; GZ and PM cell lines): increase | mRNA levels of FMR1 (FMR1 mRNA; cell lines for FM carriers affected with FXS): increase in mRNA levels
